Measured values taken from patent publication US5493024A, “3,4,N-trisubstituted-4,5-dihydro-1H-pyrazole-1-carboxamides and their use as insectioides” (DowElanco, priority 1993, dated 1996).
Values after ≈ are worked out from the molar mass of the structure shown.

Tests used:
beet armyworm [1] = experiment: Effect on beet armyworm, contact and ingestion test (treated cotton leaf discs); type: in vivo, S. exigua (beet armyworm); conditions: second-instar larvae, sprayed cotton leaf discs, 5 days at 25° C; for LC50: Spodoptera exigua, foliar, 120 h, read-out: BEET ARMYWORM Contact and Ingestion Test LC50, ppm
Description: (§1) Effect on Tobacco Budworm and Beet Armyworm by Leaf Ingestion and/or Contact.
(§2) Stock solutions of the compounds to be tested having a known concentration were prepared by dissolving weighed amounts in a 90:10 mixture of high-purity acetone and ethanol and these solutions were diluted with distilled water (containing 0.05 percent by weight Tween 20™ surfactant) to obtain the spray solutions of known concentration employed. Greenhouse-grown cotton leaves of uniform age were cut into 2.5 cm diameter discs and one disc was placed in the bottom of each of a number of 30 mL plastic cups. The cups were then sprayed by means of a track sprayer applying 0.055 mL of spray solution per cup. The leaf discs were allowed to dry and then a single second-instar H. virescens (tobacco budworm) or S. exigua (beet armyworm) larva was added to each cup and each cup was capped with a perforated plastic lid. Ten cups were prepared for each insect species and each application rate and five applications rates were usually run. Treated cups were stored for 5 days at 25° C. and were then graded for mortality. Untreated controls and positive controls (cypermethrin) were run simultaneously. The amount of test chemical required to kill half of the larvae (LD50) was calculated.

tobacco budworm [2] = experiment: Effect on tobacco budworm, contact and ingestion test (treated cotton leaf discs); type: in vivo, H. virescens (tobacco budworm); conditions: second-instar larvae, sprayed cotton leaf discs, 5 days at 25° C; for LC50: Heliothis virescens, foliar, 120 h, read-out: TOBACCO BUDWORM Contact and Ingestion Test LC50, ppm
Description: as §1, §2

beet armyworm [3] = experiment: Effect on beet armyworm, contact test (treated Teflon discs); type: in vivo, S. exigua (beet armyworm); conditions: second-instar larvae, sprayed Teflon discs 24 hours, then 5 more days on untreated leaf, 25° C; for LC50: Spodoptera exigua, 144 h, read-out: BEET ARMYWORM Contact Test LC50, ppm
Description: (§3) Effect on Tobacco Budworm and Beet Armyworm by Contact.
(§4) Stock solutions of the compounds to be tested having a known concentration were prepared by dissolving weighed amounts in a 90:10 mixture of high-purity acetone and ethanol and these solutions were diluted with distilled water (containing 0.05 percent by weight Tween 20™ surfactant) to obtain the spray solutions of known concentration employed. Teflon™ discs 5 cm in diameter were placed in plastic petri dishes of slightly larger diameter and these dishes were sprayed by means of a track sprayer applying 0.104 mL of spray solution per cup. The Teflon™ discs were allowed to dry, a single second-instar H. virescens (tobacco budworm) or S. exigua (beet armyworm) larva was placed on each Teflon™ disc, and each disc was capped with a plastic lid. Ten Teflon™ discs were prepared for each application rate and five application rates were usually run. Treated discs were stored for 24 hours at 25° C. and then the Teflon™ disc was removed and replaced with an untreated cotton leaf disc. After 5 more days of storage at 25 ° C. the dishes were graded for mortality. Untreated controls and positive controls (cypermethrin) were run simultaneously. The amount of test chemical required to kill half of the larvae (LD50) was calculated.

tobacco budworm [4] = experiment: Effect on tobacco budworm, contact test (treated Teflon discs); type: in vivo, H. virescens (tobacco budworm); conditions: second-instar larvae, sprayed Teflon discs 24 hours, then 5 more days on untreated leaf, 25° C; for LC50: Heliothis virescens, 144 h, read-out: TOBACCO BUDWORM Contact Test LC50, ppm
Description: as §3, §4

| Compound | LC50 (beet armyworm [1]) [µg/mL] | LC50 (tobacco budworm [2]) [µg/mL] | LC50 (beet armyworm [3]) [µg/mL] | further results |
| --- | --- | --- | --- | --- |
| O=C(Nc1ccc(OC(F)(F)F)cc1)N1CC(c2cnc3cc(Cl)ccc3c2)C(c2ccccc2)=N1 (stereo not drawn) [Q, 4-(7-Chloro-3-quinolinyl)-4,5-dihydro-3-phenyl-N-(4-trifluoromethoxyphenyl)-1H-pyrazole-1-carboxamide] | 13.4 (≈ 26.2 µM) | 30.8 (≈ 60.3 µM) |  |  |
| O=C(Nc1ccc(OC(F)(F)F)cc1)N1CC(c2cncnc2)C(c2ccccc2)=N1 (stereo not drawn) [J, 4,5-Dihydro-3-phenyl-4-(5-pyrimidinyl),N-(4-trifluoromethoxyphenyl)-1H-pyrazole-1-carboxamide] | > 800 | 135 (≈ 316 µM) |  |  |
| O=C(Nc1ccc(C(F)(F)F)cc1)N1CC(c2cncc(Cl)n2)C(c2ccc(F)cc2)=N1 (stereo not drawn) [Z, 4-(6-Chloro-2-pyrazinyl)-4,5-dihydro-3-(4-fluorophenyl)-N-(4-trifluoromethylphenyl)-1H-pyrazole-1-carboxamide] | > 100 |  | 75.8 (≈ 163 µM) |  |
| O=C(Nc1ccc(OC(F)(F)F)cc1)N1CC(c2ccc3ccc(Cl)cc3n2)C(c2ccc(Cl)cc2)=N1 (stereo not drawn) [P, 3-(4-Chlorophenyl)-4-(7-chloro-2-quinolinyl)-4,5-dihydro-N-(4-trifluoromethoxyphenyl)-1H-pyrazole-1-carboxamide] | 40.6 (≈ 74.4 µM) | 64.8 (≈ 119 µM) |  |  |
| O=C(Nc1ccc(OC(F)(F)F)cc1)N1CC(c2ccc(C(F)(F)F)cn2)C(c2ccc(Cl)cc2)=N1 (stereo not drawn) [C, 3-(4-Chlorophenyl)-4,5-dihydro-N-(4-trifluoromethoxyphenyl)-4-(5-trifluoromethyl-2-pyridinyl)-1H-pyrazole-1-carboxamide] | 7.9 (≈ 14.9 µM) | 9.1 (≈ 17.2 µM) |  |  |
| O=C(Nc1ccc(C(F)(F)F)cc1)N1CC(c2ccc(Cl)nn2)C(c2ccc(Cl)cc2)=N1 (stereo not drawn) [AA, 4-(6-Chloro-3-pyridazinyl)-3-(4-chlorophenyl)-4,5-dihydro-N-(4-trifluoromethylphenyl)-1H-pyrazole-1-carboxamide] | 20.3 (≈ 42.3 µM) |  | 11.7 (≈ 24.4 µM) |  |
| O=C(Nc1ccc(OC(F)(F)F)cc1)N1CC(c2cncnc2)C(c2ccc(F)cc2)=N1 (stereo not drawn) [S, 4,5-Dihydro-3-(4-fluorophenyl)-4-(5-pyrimidinyl)-N-(4-trifluoromethoxyphenyl)-1H-pyrazole-1-carboxamide] | 490 (≈ 1100 µM) | 50 (≈ 112 µM) |  |  |
| 4,5-Dihydro-3-(4-fluorophenyl)-4-(4-fluoro-5-trifluoromethyl-2-pyridinyl)- N-(4-trifluoromethoxyphenyl)-1H-pyrazole-1-carboxamide |  |  |  | TOBACCO BUDWORM Contact Test LC50, ppm (tobacco budworm [4]; 8640 min): 80 ppm; BEET ARMYWORM Contact and Ingestion Test LC50, ppm (beet armyworm [1]): 5.2 ppm; BEET ARMYWORM Contact Test LC50, ppm (beet armyworm [3]; 8640 min): 7.6 ppm; TOBACCO BUDWORM Contact and Ingestion Test LC50, ppm (tobacco budworm [2]): 10.0 ppm |
| O=C(Nc1ccc(Cl)cc1)N1CC(c2ccc(C(F)(F)F)cn2)C(c2ccc(F)cc2)=N1 (stereo not drawn) [I, N-(4-Chlorophenyl)-4,5-dihydro-3-(4-fluorophenyl)-4-(5-trifluoromethyl-2-pyridinyl)-1H-pyrazole-1-carboxamide] | 2.1 (≈ 4.54 µM) | 1.3 (≈ 2.81 µM) | < 5 | LC50 (tobacco budworm [4]): 49.7 µg/mL (≈ 107 µM) |
| CSc1ccc(NC(=O)N2CC(c3ccc(C(F)(F)F)cn3)C(c3ccc(Cl)cc3)=N2)cc1 (stereo not drawn) [Compound A, 3-(4-Chlorophenyl)-4,5-dihydro-N-(4-(methylthio)phenyl)-4-(5-trifluoromethyl-2-pyridinyl)-1H-pyrazole-1-carboxamide] | 107 (≈ 218 µM) | > 400 |  |  |
| O=C(Nc1ccc(Cl)cc1)N1CC(c2cccc(F)n2)C(c2ccc(F)cc2)=N1 (stereo not drawn) [F, N-(4-Chlorophenyl)-4,5-dihydro-3-(4-fluorophenyl)-4-(6-fluoro-2-pyridinyl)-1H-pyrazole-1-carboxamide] | > 800 | 606 (≈ 1470 µM) |  |  |
| O=C(Nc1ccc(OC(F)(F)F)cc1)N1CC(c2ccc(C(F)(F)F)cn2)C(c2ccc(F)cc2)=N1 (stereo not drawn) [H, 4,5-Dihydro-3-(4-fluorophenyl)-N-(4-trifluoromethoxyphenyl)-4-(5-trifluoromethyl-2-pyridinyl)-1H-pyrazole-1-carboxamide] | 1.3 (≈ 2.54 µM) | 2.3 (≈ 4.49 µM) | < 5 | LC50 (tobacco budworm [4]): 23.3 µg/mL (≈ 45.5 µM) |
| O=C(Nc1ccc(OC(F)(F)F)cc1)N1CC(c2cc(C(F)(F)F)nc(C(F)(F)F)c2)C(c2ccccc2)=N1 (stereo not drawn) [U, 4,5-Dihydro-4-(2,6-di(trifluoromethyl)-4-pyridinyl)-3-phenyl-N-(4-trifluoromethoxyphenyl)-1H-pyrazole-1-carboxamide] | 37.9 (≈ 67.4 µM) |  | > 100 |  |
| O=C(Nc1ccc(C(F)(F)F)cc1)N1CC(c2ccc(C(F)(F)F)cn2)C(c2ccc(Cl)cc2)=N1 (stereo not drawn) [B, 3-(4-Chorophenyl)-4,5-dihydro-N-(4-trifluoromethylphenyl)-4-(5-trifluoromethyl-2-pyridinyl)-1H-pyrazole-1-carboxamide] | 10 (≈ 19.5 µM) | 7.6 (≈ 14.8 µM) | > 80 | LC50 (tobacco budworm [4]): > 80 µg/mL |
| O=C(Nc1ccc(C(F)(F)F)cc1)N1CC(c2cnc(C(F)(F)F)cn2)C(c2ccc(F)cc2)=N1 (stereo not drawn) [Y, 4,5-Dihydro-3-(4-fluorophenyl)-N-(4-trifluoromethylphenyl)-4-(5-trifluoromethyl-2-pyrazinyl)-1H-pyrazole-1-carboxamide] | > 25 |  | 10.5 (≈ 21.1 µM) |  |
| O=C(Nc1ccc(OC(F)(F)F)cc1)N1CC(c2cnc(C(F)(F)F)nc2)C(c2ccc(F)cc2)=N1 (stereo not drawn) [W, 4,5-Dihydro-3-(4-fluorophenyl)-N-(4-trifluoromethoxyphenyl)-4-(2-trifluoromethyl-5-pyrimidinyl)-1-H-pyrazole-1-carboxamide] | 7.5 (≈ 14.6 µM) | 6.1 (≈ 11.9 µM) |  |  |
| N#Cc1ccc(C2CN(C(=O)Nc3ccc(OC(F)(F)F)cc3)N=C2c2ccc(Cl)cc2)nc1 (stereo not drawn) [N] | 2.1 (≈ 4.32 µM) | 1.5 (≈ 3.09 µM) | 7.1 (≈ 14.6 µM) | LC50 (tobacco budworm [4]): 18.3 µg/mL (≈ 37.7 µM) |
| O=C(Nc1ccc(OC(F)(F)F)cc1)N1CC(c2cccc(F)n2)C(c2ccc(F)cc2)=N1 (stereo not drawn) [E, 4,5-Dihydro-3-(4-fluorophenyl)-4-(6-fluoro-2-pyridinyl)-N-(4-trifluoromethoxyphenyl)-1H-pyrazole-1-carboxamide] | 13.6 (≈ 29.4 µM) | 70.7 (≈ 153 µM) |  |  |
| O=C(Nc1ccc(Cl)cc1)N1CC(c2ccc(C(F)(F)F)cn2)C(c2ccc(Cl)cc2)=N1 (stereo not drawn) [D, 3-(4-Chlorophenyl)-N-(4-chlorophenyl)-4,5-dihydro-4-(5-trifluoromethyl-2-pyridinyl)-1H-pyrazole-1-carboxamide] | 1.8 (≈ 3.76 µM) | 2.1 (≈ 4.38 µM) | 12.6 (≈ 26.3 µM) | LC50 (tobacco budworm [4]): 35.6 µg/mL (≈ 74.3 µM) |
| O=C(Nc1ccc(OC(F)(F)F)cc1)N1CC(c2cccnc2)C(c2ccccc2)=N1 (stereo not drawn) [R, 4,5-Dihydro-3-phenyl-4-(3-pyridinyl)-N-(4-trifluoromethoxyphenyl)-1H-pyrazole-1-carboxamide] | > 400 | 186 (≈ 436 µM) |  |  |
| O=C(Nc1ccc(SC(F)(F)F)cc1)N1CC(c2ccc(C(F)(F)F)cn2)C(c2ccc(F)cc2)=N1 (stereo not drawn) [L, 4,5-Dihydro-3-(4-fluorophenyl)-4-(5-trifluoromethyl-2-pyridinyl)-N-((4-trifluoromethylthio)phenyl)-1H-pyrazol-1-carboxamide] | 7.9 (≈ 14.9 µM) | 4.2 (≈ 7.95 µM) | > 80 | LC50 (tobacco budworm [4]): 63.5 µg/mL (≈ 120 µM) |
| O=C(Nc1ccc(OC(F)(F)F)cc1)N1CC(c2ccc3cc(Cl)ccc3n2)C(c2ccc(Cl)cc2)=N1 (stereo not drawn) [O, 3-(4-Chlorophenyl)-4-(6-chloro-2-quinolinyl)-4,5-dihydro-N-(4-trifluoromethoxyphenyl)-1H-pyrazole-1-carboxamide] | > 200 | > 200 |  |  |
| O=C(Nc1ccc(OC(F)(F)F)cc1)N1CC(c2cnc3ccc(Cl)cc3c2)C(c2ccccc2)=N1 (stereo not drawn) [K, 4-(6-Chloro-3-quinolinyl)-4,5-dihydro-3-phenyl-N-(4-trifluoromethoxyphenyl)-1H-pyrazole-1-carboxamide] | 29.7 (≈ 58.1 µM) | 70.7 (≈ 138 µM) |  |  |
